One assay concerns IL-6. The experiment in a line: Intestinal IR, ex vivo IL-6 generation. In kind it is in vivo, mouse. The settings on record: for IL-6 Induction: C57Bl/6 mice subjected to IR, peptide 40 μM i.v. 5 min prior to artery occlusion; for IR induced IL-6 production: C57Bl/6 mice, peptide prior to IR. Also noted: key to IL-6 Induction: + indicates significant difference from Sham treated mice; − indicates not significantly different from C57B1/6 sham treated mice; +/− indicates no significant difference from either C57B1/6 mice subjected to either Sham or IR. The procedure:
(§1) C57Bl/6 and Rag-1^−/− mice were subjected to ischemia followed by reperfusion similar to previously described studies (Moses, T. et al., J. Leukoc. Biol. 86:971-980 (2009)). Briefly, ketamine (16 mg/kg) and xylazine (80 mg/kg) were used to anesthetize the mice. Buprenorphine (0.06 mg/kg) was then administered for pain. A midline laparotomy was performed to expose the abdominal cavity of the mice, which were then allowed to equilibrate for 30 min. Body temperature was maintained at 37° C. using a water-circulating heat pad. Placing a warm, saline moistened piece of gauze over the abdominal cavity prevented peritoneal desiccation. […] Ischemia was noted by the intestine changing from a pink color to a gray color. After 30 min of ischemia, the clamp was removed and the intestines were allowed to reperfuse for 5, 10, 15, or 120 min. […] Mice treated with the various β2-GPI peptides underwent the same procedure with i.v. administration of the peptides (40 μM) 5 min prior to artery occlusion. Peptides 296, 305, and 296Cys to Ser were dissolved in N. Saline (0.9% NaCl) and injected i.v. in 100-μL volumes. Peptides 100 and 181 were dissolved in DMSO prior to diluting 1/100 in N. Saline. Additional mice received peptides prior to Sham treatment.
Ex vivo generation of eicosanoids by mid-jejunal tissue was determined. Immediately after collection, a 2-cm intestinal section from each mouse was minced, washed, resuspended in 37° C. oxygenated Tyrode's buffer (Sigma-Aldrich; St. Louis, Mo.), incubated at 37° C. for 20 minutes, and the supernatant collected. PGE2 and LTB4 concentrations were determined using enzyme immunoassay kits (Cayman Chemical; Ann Arbor, Mich.). IL-6 and IL-12 concentrations were determined using a Milliplex MAP immunoassay kit (Millipore) and read on a Milliplex Analyzer (Millipore). All eicosanoid and cytokine concentrations were standardized to the total tissue protein content.
(§2) Total peroxidase, LTB4, PGE2, IL-6, IL-12p40, and IL-12p70 concentrations were determined using the procedures described in Example 1.

The next assay deals with CD106 (VCAM-1). The experiment in a line: Intestinal IR, VCAM immunohistochemistry. In kind it is in vivo, mouse. The settings on record: C57Bl/6 mice, peptide prior to IR, data not shown. The procedure: as §1, with “Peptides 100 and 181 were dissolved in DMSO prior to diluting 1/100 in N. Saline. Additional mice received peptides prior to Sham treatment.” left out
After euthanasia, an additional 2-cm intestinal section from each mouse was immediately snap frozen in O.C.T. freezing medium and 8 μm sections were placed on slides for immunohistochemistry. The C3 deposition and F4/80 expression on the tissue sections were detected by staining with a purified rat-anti-mouse C3 (Hycult Biotechnologies; Plymouth Meeting, Pa.) or F4/80 (eBioscience; San Diego, Calif.) antibody followed by a Texas-red conjugated donkey-anti-rat IgG secondary antibody (Jackson Immunoresearch). CD31 (PECAM-1) and CD106 (VCAM-1) were detected by FITC conjugated rat anti-mouse CD31 or CD106 (Biolegend; San Diego, Calif.) antibodies. […] Images were obtained at room temperature using a Nikon Eclipse 80i microscope equipped with a CoolSnap CF camera (Photometrics) and analyzed using Metavue software (Molecular Devices). The fluorescence was semi-quantitated using Image J software (NIH) using the fluorescent area fraction after setting threshold for each experiment. […]

For a further assay, the system named is peroxidase. The experiment in a line: Intestinal IR, total tissue peroxidase. In kind it is in vivo, mouse. The settings on record: for total peroxidase production by the intestinal tissues: administered up to 60 min post-reperfusion. The method, then:
Ischemia/reperfusion was performed on ketamine/xylazine anesthetized mice as described in Example 1 above. After 2 hours of reperfusion, the mice were euthanized and sera, liver, spleen, and 2 cm sections of the small intestine, approximately 10 cm distal to the gastroduodenal junction, were collected for histological and other analyses. Mice treated with the various β2-GPI peptides underwent the same procedure with i.v. administration of the peptides. Most studies assumed 2 mL total blood volume in a mouse and administered peptides to a final concentration of 40 μM at 5 min prior to ischemia. Dose response studies administered 1-40 μM peptide at 5 min prior to ischemia and time course studies administered 40 μM peptide at 5 min prior to ischemia, and at 15-, 30- or 60-min post-ischemia (i.e., during reperfusion).
as §2

The subject of assay [1] is thioglycollate-elicited macrophages, nitric oxide. The experiment in a line: β2-GPI stimulated macrophage nitric oxide production. In kind it is cell-based. The note with it: mouse β2-GPI 10 μg/mL, peptide 40 μM, 18 hours. The method, then:
C57Bl/6 mice were injected i.p. with 1 mL thioglycollate (4%) 4 days prior to peritoneal lavage. Peritoneal exudate macrophages or the B cell line, LK35.2, were seeded at 2×10^6 cells/mL in 24-well or 96-well plates. After macrophage adherence, both cell types were treated with mouse β2-GPI (10 μg/mL) with or without peptide (40 μM). Additional cells were unstimulated as a negative control or stimulated with 10 μg/mL LPS (E. coli 055B5) as a positive control. Supernatants were collected 18-20 hours after stimulation and analyzed for nitrite by Griess reagent (Hoffman & Fleming, Cell Biochem. Funct. 28:686-694 (2010)) or IL-6 by Milliplex MAP kit (Millipore) following the manufacturer's instructions using a Luminex 200 with xPONENT 3.1 and Analyst software (Millipore).

A further assay relates to endoglin. The assay can be described thus: B16-F10 melanoma model, endoglin expression in tumors. The format is in vivo, mouse. The settings on record: peptide treatment on days 1-4, 6, and 8, qRT-PCR. The method, then:
mRNA was isolated from the tumor samples that were homogenized in Trizol. The concentration of mRNA was evaluated by nanodrop and the purity by bioanalyzer. cDNA was then synthesized using random primers with the Quanta cDNA synthesis kit. Real-time PCR was then performed on a 1:100 dilution of cDNA for 18s rRNA. After 3 min denaturing at 95° C., the real-time PCR reaction consisted of 50 cycles (of 10 sec at 95° C., 20 sec at 58° C., and 10 sec at 72° C.), followed by a melt curve increasing at intervals of 0.5° from 60° C. to 95° C. RT-PCR was also performed on cDNA samples for CD31 and endoglin which are endothelial markers of angiogenesis. Fold change of each gene was determined by subtracting 18s for normalization of RNA and fold change was determined by comparing to original cells which were set to 1. Primers were obtained from Integrated DNA Technology (Coraville, Iowa) and sequences are in the table below.
On the technique in general: Real-time PCR tracks product formation cycle by cycle.

The next assay deals with LTB4. The assay can be described thus: Intestinal IR, ex vivo LTB4 generation. The format is in vivo, mouse. The settings on record: 40 μM peptide at 5 min prior to ischemia and 15-, 30- or 60-min post-ischemia.
[2] abbreviates: dose response, similar concentrations of each peptide.
Where [3] appears, read: peptide administered prior to IR.

Entries after “also recorded” stand apart in the source; their conditions may differ. Ends that are not written are not given here.

The record followed here is patent US8895502B2, “β2-glycoprotein I peptide inhibitors” (Kansas State University Research Foundation, priority 2010, dated 2014).

Regarding “H-KNISFACNPGFFLNG-NH2 [peptide 100, 16, reference compound]”, in the assay on IL-6, the “IL-6 Induction” value is reported as “+/−” and the “IR induced IL-6 production” value was “attenuated IL-6 production”.
With “H-KKCSYTVEAHCRDGTIEIPSCFKEHS-OH (cysteine pairing not given here) [peptide 305, 10]”, the “expression of adhesion molecule VCAM after IR” value (“expression … after IR” below) in the assay on CD106 (VCAM-1) is reported as “inhibited”. Besides, the “IL-6 Induction” value with IL-6 is “−”. For the same substance, the “IR induced IL-6 production” value with IL-6 is given as “attenuated; also recorded: inhibited”. The “total peroxidase production by the intestinal tissues” value in the assay on peroxidase is given as “significantly decreased”. In addition, the values for the intestinal peroxidase production entry in the assay on peroxidase (setting [2]) and with peroxidase (setting [3]) were “attenuated” and “significantly attenuated”, respectively. The “β2-GPI-induced nitric oxide production” value in assay [1] is recorded as “significantly attenuated”.
As to “H-IPSCFKEHSSLAFWKTDASELTPC-NH2 (cysteine pairing not given here) [peptide 322, 18]”, in the assay with IL-6, the “IL-6 Induction” value was “+” and the “IR induced IL-6 production” value was “did not inhibit”.
Turning to “H-IHFYSKNKEKKSSYTVEAHSRDGTI-OH [peptide 296Cys-Ser]”, in the assay with CD106 (VCAM-1), the “expression … after IR” value was “inhibited”. Further, in the assay on IL-6, the “IL-6 Induction” value is “−”. The “IR induced IL-6 production” value with IL-6 is on record as “attenuated; also recorded: inhibit”. Moreover, the “total peroxidase production by the intestinal tissues” value in the assay with peroxidase is recorded as “significantly decreased”. In addition, the intestinal peroxidase production entry is listed as “attenuated” in the assay with peroxidase (setting [2]) and “significantly attenuated” with peroxidase (setting [3]). Also, in assay [1], the “β2-GPI-induced nitric oxide production” value is listed as “significantly attenuated”. The “endoglin RNA expression within the tumors” value with endoglin is recorded as “attenuated”. For the same substance, the “IR-induced LTB4, time course of administration” value in the assay on LTB4 is reported as “significantly inhibited”.
Take “H-IHFYCKNKEKKCSYTVEAHCRDGTI-OH (cysteine pairing not given here) [peptide 296]”: the “expression … after IR” value in the assay on CD106 (VCAM-1) is recorded as “inhibited”. In the assay with IL-6, the “IL-6 Induction” value was “−” and the “IR induced IL-6 production” value is on record as “attenuated; also recorded: inhibit”.
